Measured values taken from PubChem BioAssay (NCI).
“And” between values parts separate entries of the source, which are not always exact repeats. Equal entries are not always repeated.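 Tested at 5 concentrations; 48 h exposure; 96-well plates; endpoints linearly interpolated, else capped at highest concentration. GI50 marks 50% less growth. TGI marks complete inhibition of growth.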

tested on: EKVX NSCLC; assay: NCI-60 cell line screen, 48 h

Point of comparison: `CO[C@H]1[C@@H](O)[C@@H](C)O[C@@H](O[C@H]2CC[C@@]3(C)[C@H](CC[C@@H]4[C@@H]3CC[C@]3(C)[C@@H](C5=CC(=O)OC5)[C@@H](OC(C)=O)C[C@]43O)C2)[C@@H]1O`, TGI 0.0568 µM. Against it:
- CCN(CC)/C(Cl)=C(Cl)\C(=C1\Nc2ccc(OC)cc21)[N+](=O)[O-] — higher, > 100 µM
- N#Cc1c(-c2ccccc2)[nH]c2ccccc2c1=O — higher, > 100 µM
- C=CCn1c(=O)n(CC=C)c(=O)n(CC=C)c1=O — higher, > 100 µM
- CC1(C)c2ccccc2C(=O)C12CCC(=O)CC2 — higher, > 100 µM
- O=C1C(Cl)C(c2ccccc2)N1n1cnc2ccccc2c1=O (stereo not drawn) — higher, > 100 µM
- CN(C)C(=O)OCOC(=O)N(C)C — higher, > 100 µM
- CCOC(=O)C1=C(Nc2cccc(OC)c2)OCC1=O — higher, > 100 µM
- CC(=O)OCC1OC(Nc2ncc(-c3ccc(C)cc3)s2)C(OC(C)=O)C(OC(C)=O)C1OC(C)=O (stereo not drawn) — higher, > 100 µM
- CCCCN1C=CN2c3nc4cc(C)c(C)cc4n3C(C(=O)OC)=C(C(=O)OC)C12 (stereo not drawn) — higher, > 100 µM
- CCCCCC(C[N+]1(C)CCOCC1)C(=O)/C=C/c1ccccc1 (stereo not drawn) — 670-fold higher, 38.2 µM
- COc1ccc2c(c1)CC[C@@H]1[C@@H]2CC[C@]2(C)C(=O)/C(=C/c3ccc(OC)c(OC)c3)C[C@@H]12 — higher, > 100 µM
- C/C(=C1/CCCC2(N=NCC2c2ccccc2)C1=O)c1ccccc1 (stereo not drawn) — higher, > 100 µM

tested on: MDA-MB-231 breast; assay: NCI-60 cell line screen, 48 h

Point of comparison: `CO[C@H]1[C@@H](O)[C@@H](C)O[C@@H](O[C@H]2CC[C@@]3(C)[C@H](CC[C@@H]4[C@@H]3CC[C@]3(C)[C@@H](C5=CC(=O)OC5)[C@@H](OC(C)=O)C[C@]43O)C2)[C@@H]1O`, TGI 0.972 µM. Against it:
- CN(C)C(=O)NCCN1CCCCCc2ccccc21 — higher, > 100 µM
- CCOC(=O)c1nc2c(Cl)c3ncccc3cc2[nH]c1=O — higher, > 100 µM
- CC1(C#N)CC(C)(C)C(/C=C2/CC(C)(C)C(/C=C3/OC(=N)CC3(C)C)=N2)=N1 (stereo not drawn) — higher, > 100 µM
- CC(=O)Oc1ccccc1-c1cc2ccccc2oc1=O — higher, > 100 µM
- C[C@]12CCC(=O)C=C1CC[C@@H]1C2CC[C@]2(C)c3nn(-c4ccc(F)cc4)nc3CC12 (stereo partly drawn) — higher, > 100 µM
- Cc1ccc2nc(-c3ccc(N)c(I)c3)sc2c1 — higher, > 100 µM
- CCC1c2[nH]c3ccccc3c2C[C@H]2C(=O)NC(COC(C)(C)C)C(=O)N12 (stereo partly drawn) — higher, > 100 µM
- CCOC(=O)c1csc(NC(=O)C(C)N2CCCCC2)n1 (stereo not drawn) — higher, > 100 µM
- O=C1c2cc3c(cc2CC12Cc1cc4c(cc1C2=O)CCC4)CCCC3 (stereo not drawn) — higher, > 100 µM
- N#Cc1sc2nc(/C=C3/C=CC=CC3=O)c(O)n2c1N — higher, > 100 µM
- Cc1cccc2c1Oc1cc(Cl)ccc1C2NC(=O)CCN1CCOCC1 (stereo not drawn) — higher, > 100 µM
- O=C(O)c1ccc(NNc2cc(=O)[nH]c(=O)[nH]2)cc1 — higher, > 100 µM
- CCN(CC)/C(Cl)=C(Cl)\C(=C1\Nc2ccc(OC)cc21)[N+](=O)[O-] — higher, > 100 µM
- N#Cc1c(-c2ccccc2)[nH]c2ccccc2c1=O — higher, > 100 µM
- CC12CCC(C(=O)OC1=O)C2(C)C (stereo not drawn) — higher, > 100 µM
- CC1(C)c2ccccc2C(=O)C12CCC(=O)CC2 — higher, > 100 µM
- CCOC(=O)C1=C(Nc2cccc(OC)c2)OCC1=O — higher, > 100 µM
- COc1ccc2c(c1)CC[C@@H]1[C@@H]2CC[C@]2(C)C(=O)/C(=C/c3ccc(OC)c(OC)c3)C[C@@H]12 — higher, > 100 µM

tested on: SF-268 CNS; assay: NCI-60 cell line screen, 48 h

Point of comparison: `Cc1ccc2nc(-c3ccc(N)c(I)c3)sc2c1`, TGI 88.7 µM. Against it:
- CN(C)C(=O)NCCN1CCCCCc2ccccc21 — higher, > 100 µM
- Cc1ccc2c(c1CCCC(C)(C)O)C(=O)C(=O)C(C(C)C)=C2O — higher, > 100 µM
- CCOC(=O)c1nc2c(Cl)c3ncccc3cc2[nH]c1=O — higher, > 100 µM
- CC1(C#N)CC(C)(C)C(/C=C2/CC(C)(C)C(/C=C3/OC(=N)CC3(C)C)=N2)=N1 (stereo not drawn) — higher, > 100 µM
- CC(=O)Oc1ccccc1-c1cc2ccccc2oc1=O — higher, > 100 µM
- C[C@]12CCC(=O)C=C1CC[C@@H]1C2CC[C@]2(C)c3nn(-c4ccc(F)cc4)nc3CC12 (stereo partly drawn) — higher, > 100 µM
- O=c1[nH]cc(COCC(F)(F)C(F)(F)C(F)(F)C(F)F)c(=O)[nH]1 — higher, > 100 µM
- CCC1c2[nH]c3ccccc3c2C[C@H]2C(=O)NC(COC(C)(C)C)C(=O)N12 (stereo partly drawn) — higher, > 100 µM
- O=C1NC(=O)C(CCO)(c2ccccc2)C(=O)N1 — higher, > 100 µM
- Cc1cn(C2CC(ON3C(=O)c4ccccc4C3=O)C(CO)O2)c(=O)[nH]c1=O (stereo not drawn) — not separable, > 10 µM
- Cc1ccc(C2CC(c3ccco3)=NN2c2ccccc2)o1 (stereo not drawn) — higher, > 100 µM
- COC(=O)c1ccc(/C=C2\N=C(C)OC2=O)cc1 — higher, > 100 µM
- Nc1ccc(C(=O)NN2C(=O)C(Cl)C2c2ccccc2Cl)cc1 (stereo not drawn) — 5.8-fold lower, 15.2 µM
- O=C1c2cc3c(cc2CC12Cc1cc4c(cc1C2=O)CCC4)CCCC3 (stereo not drawn) — higher, > 100 µM
- N#Cc1sc2nc(/C=C3/C=CC=CC3=O)c(O)n2c1N — higher, > 100 µM
- CCN1CCN(c2ccc(Nc3ccnc4ccc5nn(C)nc5c34)cc2)CC1 — 3-fold lower, 29.8 µM
- Cc1cccc2c1Oc1cc(Cl)ccc1C2NC(=O)CCN1CCOCC1 (stereo not drawn) — higher, > 100 µM
- O=C(O)c1ccc(NNc2cc(=O)[nH]c(=O)[nH]2)cc1 — higher, > 100 µM

In the case of `C=C1C(=O)O[C@H]2[C@H]1[C@@H](OC(=O)C=C(C)C)CC1=C[C@@H](C[C@@]3(C)O[C@@H]23)OC1=O`, the GI50 is reported as 17.5 µM and 5.11 µM.

`C=C1C(=O)O[C@H]2[C@H]1[C@@H](OC(=O)C=C(C)C)CC1=C[C@@H](C[C@@]3(C)O[C@@H]23)OC1=O` was tested, and the TGI was 35.6 µM and 22.9 µM.
